Test results published in publication PMC6927504, “Screening of House Dust from Chinese Homes for Chemicals with Liver X Receptors Binding Activities and Characterization of Atherosclerotic Activity Using an in Vitro Macrophage Cell Line and ApoE^−/− Mice” (Environmental Health Perspectives, 2019).

How the values were obtained:
ABCG1 [1] = test: qRT-PCR of LXR target gene ABCG1 in RAW264.7 macrophages; format: cell-based; details: vehicle-treated cells set to 1
Procedure: RAW264.7 cells were obtained from the National Infrastructure of Cell Line Resource of Beijing, China, and the cells used for the experiment were cultured for at least three passages. Dulbecco’s Modified Eagle’s Medium (DMEM)-F12 medium containing 10% fetal bovine serum (FBS) was employed to culture the RAW264.7 cells. RAW264.7 cells were incubated at 37°C with 5% carbon dioxide. The RAW264.7 cells were plated at 2.5×10^5 cells/well (6-well plates), 6.0×10^4 cells/well (24-well plates), and 10^4 cells/well (96-well plates). The RAW264.7 cells were plated and grown overnight; then the medium was removed and fresh DMEM-F12 contained with 0.1% DMSO (control; n=3 ) or TPHP at the concentrations of 1–20,000 nM ( n=3 per group) was added. […] Then the cells were used for the quantitative reverse transcription (qRT)-PCR, cellular cholesterol efflux assay, and foam cell formation experiment.
Total RNA was isolated from RAW264.7 cells and mouse peritoneal macrophages using TRIzol reagent according to the manufacturer’s instructions. Then a Nanovue Plus™ spectrophotometer (GE Healthcare Life Science) was used to analyze the concentration, quality, and purity of the RNA. Total RNA ( 1μg ) was mixed with oligo deoxythymine (dT) ( 1μL ) at 70°C for 5 min and then combined with a mixture containing Moloney murine leukemia virus (MMLV) reverse transcriptase ( 1μL ), deoxy-ribonucleoside triphosphate (dNTP) ( 1.25μL ), Recombinant RNasin® Ribonuclease Inhibitor (Promega) ( 0.65μL ), and MMLV buffer ( 5μL ) at 42°C for 60 min. The SYBR® Green PCR Kit (TOYOBO) was used for RT-PCR analysis. Real-time fluorescence detection was performed using the StepOnePlus™ sequence detection system (Applied Biosystems). […] The following primers were designed and purchased from Sangon Biotech:
• actin: 5′-[…]-3′ and 5′-[…]-3′ ATP-binding cassette transporter A1 (ABCA1): 5′-[…]-3′ and 5′-[…]-3′ • ATP-binding cassette transporter G1 (ABCG1): 5′-[…]-3′ and 5′-[…]-3′.

ABCA1 = test: qRT-PCR of ABCA1 in peritoneal macrophages isolated from exposed C57BL/6 mice; format: in vivo, mouse; details: 200 mg/kg BW oral gavage for 7 d, control set to 1, p<0.01
Procedure: (§1) Total RNA was isolated from RAW264.7 cells and mouse peritoneal macrophages using TRIzol reagent according to the manufacturer’s instructions. Then a Nanovue Plus™ spectrophotometer (GE Healthcare Life Science) was used to analyze the concentration, quality, and purity of the RNA. Total RNA ( 1μg ) was mixed with oligo deoxythymine (dT) ( 1μL ) at 70°C for 5 min and then combined with a mixture containing Moloney murine leukemia virus (MMLV) reverse transcriptase ( 1μL ), deoxy-ribonucleoside triphosphate (dNTP) ( 1.25μL ), Recombinant RNasin® Ribonuclease Inhibitor (Promega) ( 0.65μL ), and MMLV buffer ( 5μL ) at 42°C for 60 min. The SYBR® Green PCR Kit (TOYOBO) was used for RT-PCR analysis. Real-time fluorescence detection was performed using the StepOnePlus™ sequence detection system (Applied Biosystems). […]
(§2) All experiments related to animals were approved by the institutional animal care and use committee of Peking University and followed the guidelines for animal experiments of the university as well as for experimental animals in China. […] Body weight (BW) was measured every week during the dosing period. […] Considering that this study assessed the effects of short-term exposure to TPHP, whereas humans are exposed to TPHP over a lifelong period, the present study used exposure doses that were higher than that of human exposure from house dust. […]

ABCG1 [2] = test: qRT-PCR of ABCG1 in peritoneal macrophages isolated from exposed C57BL/6 mice; format: in vivo, mouse; details: 200 mg/kg BW oral gavage for 7 d, control set to 1, p<0.01
Procedure: as §1, §2

## O=P(Oc1ccccc1)(Oc1ccccc1)Oc1ccccc1 [TPHP, triphenyl phosphate]
ABCG1 [1]; 100 nM, p<0.05
  ABCG1 gene expression relative to control: 0.87±0.05 fold
ABCG1 [1]; 1,000 nM, p<0.05
  ABCG1 gene expression relative to control: 0.80±0.06 fold
ABCG1 [1]; 5,000 nM, p<0.01
  ABCG1 gene expression relative to control: 0.52±0.02 fold
ABCG1 [1]; 10,000 nM, p<0.01
  ABCG1 gene expression relative to control: 0.42±0.05 fold
ABCG1 [1]; 20,000 nM, p<0.01
  ABCG1 gene expression relative to control: 0.28±0.02 fold
ABCA1
  ABCA1 gene expression in peritoneal macrophages relative to control: 0.51±0.07 fold
ABCG1 [2]
  ABCG1 gene expression in peritoneal macrophages relative to control: 0.30±0.08 fold
